Counter-ions that a name gives are not always drawn. Like-named read-outs stand apart in the source and are kept apart here.
Tested on: Human osteosarcoma U20S cells
Test: Assay to measure lysosome and autolysosome formation (acidic vesicle formation, LysoView/LysoTracker staining)
Type: cell-based
Settings: for activation at 0.8 µM: Homo sapiens; for activation at 0.8 µM / Activity (percentage increase in acidic vesicle formation), Table 2b More preferred compounds: U2OS cells, concentration of 0.8 μM
Experimental: Lysosomes play a fundamental role in the autophagic pathway by fusing with autophagosomes and creating ‘autolysosomes’ in order to digest their contents. Stimulation of lysosome and autolysosome formation by a compound is indicative of a stimulation of autophagy. The ability of compounds to stimulate lysosome and autolysosome formation, and thus autophagy, in live cells was assessed via fluorescent microscopy using various fluorescent stains for labelling and tracking acidic organelles (including lysosomes and autolysosomes) such as: LysoView™ 650 (70059 and 70059-T, Biotium), LysoViewTM633 (70058 and 70058-T, Biotium) and LysoTracker™ Deep Red (L12492, ThermoFisher Scientific). The cellular phenotype was quantitatively assessed for the induction of acidic vesicle formation and compared to a non-treated control, thus providing a measure of the ability of the compound under investigation to stimulate autophagy.
Representative procedure using LysoView™633 dye or LysoTracker™ Deep Red dye: Human osteosarcoma U20S cells (40,000 cells/well) were seeded in a 24 well glass bottom plate (Sensoplate, Greiner Bio-One) and were incubated overnight in a humidified atmosphere at 37° C. and 5% CO2. Cells were grown in DMEM (Gibco) supplemented with 10% Fetal Bovine Serum (FBS) and 100 units/ml penicillin and 100 μg/ml streptomycin (Invitrogen). After the attachment period, cells were treated with different compounds of interest (at various concentrations in DMSO) or DMSO (non-treated control) in cell culture medium and were incubated for 24 hours. Compound-containing medium was removed and cells were incubated with pre-warmed cell culture medium containing 1× LysoView™ 633 (70058 and 70058-T, Biotium) or 50 nM LysoTracker™ Deep Red (L12492, ThermoFisher Scientific) for 45 minutes at 37° C. Finally, cell nuclei were stained for 10 minutes using Hoechst 33342 (1 μg/mL) and then the medium was replaced with fresh medium. The 24 well plate was then fitted into a heated stage on the microscope and cells maintained at 37° C. Images were captured using appropriate filter set for Cy5 and DAPI detection with the EVOS M7000 Microscope (ThermoFisher Scientific). The cellular phenotype was visually assessed for the induction of acidic vesicle formation relative to the non-treated control; multiple images were acquired and analyzed using ImageJ or Cell Profiler.

[1] = read-out: Activity (percentage increase in acidic vesicle formation over the DMSO-treated control), Table 2
[2] = read-out: Activity (percentage increase in acidic vesicle formation), Table 2a Preferred compounds

SMILES	activation at 0.8 µM [1] [%]	other results
CC(C)N(C(=O)c1csc(-c2cnn(-c3ccccc3)c2)n1)C1C[C@H]2C[C@@H]1CN2 (stereo partly drawn) [Compound 316, N-[(1R,4R)-2-azabicyclo[2.2.1]heptan-5-yl]-2-(1-phenyl-1H-pyrazol-4-yl)-N-(propan-2-yl)-1,3-thiazole-4-carboxamide]	30 to 50	–
O=C(NC1C[C@@H]2C[C@H]1CN2)c1csc(-c2cnn(-c3ccccc3)c2)n1 (stereo partly drawn) [Compound 327, N-[(1S,4S)-2-azabicyclo[2.2.1]heptan-5-yl]-2-(1-phenyl-1H-pyrazol-4-yl)-1,3-thiazole-4-carboxamide]	30 to 50	–
CCCN(C(=O)c1csc(-c2cnn(-c3cccc(OC(F)(F)F)c3)c2)n1)[C@H]1CCNC1 [Compound 25, N-propyl-N-[(3S)-pyrrolidin-3-yl]-2-{1-[3-(trifluoromethoxy)phenyl]-1H-pyrazol-4-yl}-1,3-thiazole-4-carboxamide]	10 to 30	–
CCCN(C(=O)c1csc(-c2cnc(-c3ccccc3)o2)n1)[C@H]1CCNC1 [Compound 35, 2-(2-phenyl-1,3-oxazol-5-yl)-N-propyl-N-[(3S)-pyrrolidin-3-yl]-1,3-thiazole-4-carboxamide]	10 to 30	–
CCCN(C(=O)c1cc(-c2cnn(-c3ccccc3)c2)cs1)[C@H]1CCNC1 [Compound 59, 4-(1-phenyl-1H-pyrazol-4-yl)-N-propyl-N-[(3S)-pyrrolidin-3-yl]thiophene-2-carboxamide]	10 to 30	–
NCCCCCNC(=O)c1cc(-c2cnn(-c3ccccc3)c2)cs1 [Compound 17, N-(5-aminopentyl)-4-(1-phenyl-1H-pyrazol-4-yl)thiophene-2-carboxamide]	10 to 30	–
CCCN(C(=O)c1csc(-c2cnn(-c3ccc(Cl)cc3)c2)n1)[C@@H]1CCNC1 [Compound 41, 2-[1-(4-chlorophenyl)-1H-pyrazol-4-yl]-N-propyl-N-[(3R)-pyrrolidin-3-yl]-1,3-thiazole-4-carboxamide]	10 to 30	–
CCCN(C(=O)c1csc(-c2cnn(-c3ccccc3Cl)c2)n1)[C@@H]1CCNC1 [Compound 90, 2-[1-(2-chlorophenyl)-1H-pyrazol-4-yl]-N-propyl-N-[(3R)-pyrrolidin-3-yl]-1,3-thiazole-4-carboxamide]	10 to 30	–
CCCN(C(=O)c1ccc(-c2cnn(-c3ccccc3)c2)[nH]1)[C@H]1CCNC1 [Compound 93, 5-(1-phenyl-1H-pyrazol-4-yl)-N-propyl-N-[(3S)-pyrrolidin-3-yl]-1H-pyrrole-2-carboxamide]	> 100	activation at 0.8 µM [2]: 50 to 100%; Activity (percentage increase in acidic vesicle formation), Table 2b More preferred compounds: ++++ (a percentage increase in acidic vesicle of greater than 100% over the DMSO-treated control)
CCCN(C(=O)c1csc(-c2cnn(-c3cccc(C(F)(F)F)c3)c2)n1)[C@H]1CCNC1 [Compound 48, N-propyl-N-[(3S)-pyrrolidin-3-yl]-2-{1-[3-(trifluoromethyl)phenyl]-1H-pyrazol-4-yl}-1,3-thiazole-4-carboxamide]	50 to 100	activation at 0.8 µM [2]: 50 to 100%
CCCN(C(=O)c1ccc(-c2cnn(-c3ccccc3)c2)o1)[C@H]1CCNC1 [Compound 98, 5-(1-phenyl-1H-pyrazol-4-yl)-N-propyl-N-[(3S)-pyrrolidin-3-yl]furan-2-carboxamide]	50 to 100	activation at 0.8 µM [2]: 50 to 100%
N[C@@H]1CCCN(C(=O)c2csc(-c3cnn(-c4ccccc4)c3)n2)C1 [Compound 143, (3R)-1-[2-(1-phenyl-1H-pyrazol-4-yl)-1,3-thiazole-4-carbonyl]piperidin-3-amine]	10 to 30	–
CCCN(C(=O)c1csc(-c2cnn(-c3ccc(Cl)cc3)c2)n1)[C@H]1CCNC1 [Compound 40, 2-[1-(4-chlorophenyl)-1H-pyrazol-4-yl]-N-propyl-N-[(3S)-pyrrolidin-3-yl]-1,3-thiazole-4-carboxamide]	10 to 30	–
CC(C)N(C(=O)c1csc(-c2cnn(-c3ccccc3)c2)n1)[C@H]1[C@@H]2CNC[C@@H]21 [Compound 318, N-[(1R,5S,6S)-3-azabicyclo[3.1.0]hexan-6-yl]-2-(1-phenyl-1H-pyrazol-4-yl)-N-(propan-2-yl)-1,3-thiazole-4-carboxamide]	> 100	–
CCCN(C(=O)c1csc(-c2cnn(-c3ccc(F)cc3)c2)n1)[C@@H]1CCNC1 [Compound 54, 2-[1-(4-fluorophenyl)-1H-pyrazol-4-yl]-N-propyl-N-[(3R)-pyrrolidin-3-yl]-1,3-thiazole-4-carboxamide]	10 to 30	–
CCCN(C(=O)c1csc(-c2cnn(-c3ccccn3)c2)n1)[C@H]1CCNC1 [Compound 43, N-propyl-2-[1-(pyridin-2-yl)-1H-pyrazol-4-yl]-N-[(3S)-pyrrolidin-3-yl]-1,3-thiazole-4-carboxamide]	10 to 30	–
CCCN(C(=O)c1csc(-c2cnn(-c3ccc(OC(F)(F)F)cc3)c2)n1)[C@@H]1CCNC1 [Compound 46, N-propyl-N-[(3R)-pyrrolidin-3-yl]-2-{1-[4-(trifluoromethoxy)phenyl]-1H-pyrazol-4-yl}-1,3-thiazole-4-carboxamide]	30 to 50	–
CCCN(C(=O)c1csc(-c2cnn(-c3ccccc3)c2)n1)[C@H]1CCNC1 [Compound 170, (S)-2-(1-phenyl-1H-pyrazol-4-yl)-N-propyl-N-(pyrrolidin-3-yl)thiazole-4-carboxamide hydrochloride]	10 to 30	–
CCCN(C(=O)c1ccc(-c2cnn(-c3ccccc3)c2)[nH]1)[C@@H]1CCNC1 [Compound 94, 5-(1-phenyl-1H-pyrazol-4-yl)-N-propyl-N-[(3R)-pyrrolidin-3-yl]-1H-pyrrole-2-carboxamide]	> 100	activation at 0.8 µM [2]: 50 to 100%; Activity (percentage increase in acidic vesicle formation), Table 2b More preferred compounds: ++++ (a percentage increase in acidic vesicle of greater than 100% over the DMSO-treated control)
CC(C)N(C(=O)c1csc(-c2cnn(-c3cccnc3)c2)n1)C1CCNCC1 [Compound 321, N-(piperidin-4-yl)-N-(propan-2-yl)-2-[1-(pyridin-3-yl)-1H-pyrazol-4-yl]-1,3-thiazole-4-carboxamide]	30 to 50	increase in acidic vesicle formation (U20S cells, relative to DMSO-treated control (10 μM)): only a slight increase
CC(C)N(C(=O)c1csc(-c2cnn(-c3ccccc3F)c2)n1)C1CCNCC1 [Compound 95, 2-[1-(2-fluorophenyl)-1H-pyrazol-4-yl]-N-(piperidin-4-yl)-N-(propan-2-yl)-1,3-thiazole-4-carboxamide]	50 to 100	activation at 0.8 µM [2]: 50 to 100%
CCCN(C(=O)c1csc(-c2cnn(-c3ccccc3)c2)c1)[C@H]1CCNC1 [Compound 42, 5-(1-phenyl-1H-pyrazol-4-yl)-N-propyl-N-[(3S)-pyrrolidin-3-yl]thiophene-3-carboxamide]	10 to 30	–
CCCN(C(=O)c1csc(-c2cnn(-c3ccc(C)cc3)c2)n1)[C@@H]1CCNC1 [Compound 65, 2-[1-(4-methylphenyl)-1H-pyrazol-4-yl]-N-propyl-N-[(3R)-pyrrolidin-3-yl]-1,3-thiazole-4-carboxamide]	30 to 50	–
CCCN(C(=O)c1csc(-c2ccc(-c3ccccc3)s2)n1)[C@@H]1CCNC1 [Compound 70, 2-(5-phenylthiophen-2-yl)-N-propyl-N-[(3R)-pyrrolidin-3-yl]-1,3-thiazole-4-carboxamide]	30 to 50	–
